The source of these data is US20090215678A1, “Preventing Vertical Endoparasite Infections” (BAYER HEALTHCARE AG, priority 2004, published 2009).

The test system of one data set is Toxocara canis. Put plainly: Prevention of vertical (prenatal) Toxocara canis infection in pups of experimentally infected beagle bitches treated during pregnancy. The format is in vivo. Conditions: for percentage efficacy, number of excreted eggs per gram of faeces: measured in pups; for percentage efficacy, number of intestinal stages in the intestine: pups euthanised on 35th day of life. On the procedure:
(§1) The investigations were carried out on eighteen beagle bitches which had been experimentally infected with Toxocara canis. Six of these animals served as the untreated control group. Two different treatment schemes were used. In treatment group 1 (T1), six bitches were treated daily, from the 42nd day of pregnancy onwards until the birth of the pups, with in each case 1 mg of emodepside/kg of body weight, given orally as a tablet formulation; the six bitches in treatment group 2 (T2) were treated in the same way except that the treatment was only given every third day instead of daily. The efficacy of the treatment was assessed by determining three target quantities in the pups: number of somatic T. canis larvae in samples of the liver, lung, kidney and gastrointestinal tract including content and musculature (euthanasia of the pups directly after birth), number of excreted eggs per gram of faeces and number of intestinal T. canis stages after washing out the intestine (euthanasia of the pups on the 35th day of life).

The nature of data set [1]: Tolerability in dams and pups in the beagle study. In kind it is in vivo. The note with it: 1 mg/kg orally, T1 and T2. As to the method:
as §1
Incompatibility phenomena were not observed either in the dam or in the pups.

Where [2] appears, read: T2: 1 mg/kg orally, every third day from 42nd day of pregnancy until birth.

Regarding `CC(C)C[C@H]1C(=O)O[C@H](Cc2ccc(N3CCOCC3)cc2)C(=O)N(C)[C@@H](CC(C)C)C(=O)O[C@H](C)C(=O)N(C)[C@@H](CC(C)C)C(=O)O[C@H](Cc2ccc(N3CCOCC3)cc2)C(=O)N(C)[C@@H](CC(C)C)C(=O)O[C@H](C)C(=O)N1C` [emodepside], the “mean value of percentage efficacy obtained from the target quantities” value is recorded as 98.7% in the data set on Toxocara canis (T1 (daily treatment)) and 97.5% in the data set with Toxocara canis (T2 (treatment every third day)). In addition, the “percentage efficacy, number of excreted eggs per gram of faeces” value with Toxocara canis (T1: 1 mg emodepside/kg body weight orally as tablet, daily from 42nd day of pregnancy until birth) turned out to be 99.9%; with Toxocara canis (setting [2]) it was 99.9%. Also, the “percentage efficacy, number of somatic larvae in the digestive organs” value in the data set on Toxocara canis (T1: 1 mg/kg orally, daily from 42nd day of pregnancy until birth, pups euthanised directly after birth) was determined as 96.4%. For the same compound, the “percentage efficacy, number of intestinal stages in the intestine” value in the data set with Toxocara canis (T1: 1 mg/kg orally, daily from 42nd day of pregnancy until birth) stood at 99.9%; with Toxocara canis (setting [2]), 98.7%. In the data set on Toxocara canis (T2: 1 mg/kg orally, every third day from 42nd day of pregnancy until birth, pups euthanised directly after birth), the “percentage efficacy, number of somatic larvae” value is given as 93.8%. For the same compound, the “prenatal infection with T. canis in the pups” value in the data set with Toxocara canis (both treatment schemes (T1 and T2)) was “marked reduction”. The “incompatibility phenomena in the dam or in the pups” value in data set [1] is given as “not observed”.
